Measured values reported in patent publication US8742138B2, “Compounds as hypoxia mimetics, and compositions and uses thereof” (Betta Pharmaceuticals Co., Ltd., priority 2009, dated 2014).

biological target: HIF-PHD2 (Homo sapiens (Human), UniProt Q9GZT9); experiment: Assay of HIF-PHD2 Enzyme Activity (TR-FRET); format: biochemical; conditions: 600 nM full length PHD2, 0.2 μM 2-oxoglutarate, 0.5 μM HIF-1α peptide
Experimental: HIF-PHD2 activity was measured using homogeneous TR-FRET technology (see also, US2008/004817; Dao J H et al., Anal Biochem. 2009, 384:213-23). To each well of a ½Area 96-well plate was added 2 μL of test compound in DMSO and 40 μL of assay buffer (50 mM Tris PH7.4/0.01% Tween-20/0.1 mg/ml BSA/1 mM Sodium ascorbate/20 μg/ml Catalase/10 μM FeSO4) containing 600 nM full length PHD2. After a 30 min preincubation at room temperature, the enzymatic reactions were initiated by the addition of 8 μL of substrates (final concentrations of 0.2 μM 2-oxoglutarate and 0.5 μM HIF-1α peptide biotinyl-[…]). After 2 hr at room temperature, the reactions were terminated and signals were developed by the addition of a 50 μL quench/detection mix to a final concentration of 1 mM ortho-phenanthroline, 0.1 mM EDTA, 0.5 nM anti-(His)6LANCE reagent, 100 nM AF647-labeled Streptavidin, and 30 nM (His)6-VHL-elonginB-elonginC complex. The ratio of time resolved fluorescence signals at 665 and 620 nm was determined, and percent inhibition was calculated relative to an uninhibited control sample run in parallel.

Chain of HIF-PHD2 (Q9GZT9 whole entry): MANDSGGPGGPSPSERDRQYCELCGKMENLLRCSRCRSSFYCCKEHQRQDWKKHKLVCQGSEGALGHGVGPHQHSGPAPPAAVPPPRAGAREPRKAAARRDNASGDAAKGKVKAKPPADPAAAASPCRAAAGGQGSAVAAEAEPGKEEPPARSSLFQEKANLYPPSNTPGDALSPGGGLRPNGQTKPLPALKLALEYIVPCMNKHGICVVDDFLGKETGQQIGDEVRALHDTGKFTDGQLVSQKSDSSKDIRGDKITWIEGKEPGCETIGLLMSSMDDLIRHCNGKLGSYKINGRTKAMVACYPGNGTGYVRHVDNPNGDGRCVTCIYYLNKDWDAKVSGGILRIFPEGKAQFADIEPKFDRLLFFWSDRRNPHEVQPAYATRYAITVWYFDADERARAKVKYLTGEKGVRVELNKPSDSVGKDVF

Going from `O=C(O)CNC(=O)c1c(O)c2cccc(-c3ccc(OC(F)(F)F)cc3)c2oc1=O` [Example 23, N-[(4-hydroxy-2-oxo-8-(4-trifluoromethoxyphenyl)-2H-3-chromenyl)carbonyl]glycine] to `O=C(O)CNC(=O)c1c(O)c2cccc(-c3ccc(C(F)(F)F)cc3)c2oc1=O` [Example 21, N-[(4-hydroxy-2-oxo-8-(4-trifluoromethylphenyl)-2H-3-chromenyl)carbonyl]glycine], the IC50 falls from 150 nM to 90 nM (1.7-fold).

Going from `O=C(O)CNC(=O)c1c(O)c2cccc(-c3ccc(Cl)c(Cl)c3)c2oc1=O` [Example 24, N-[(4-hydroxy-2-oxo-8-(3,4-dichlorophenyl)-2H-3-chromenyl)carbonyl]glycine] to `O=C(O)CNC(=O)c1c(O)c2cccc(-c3cccc(Cl)c3)c2oc1=O` [Example 18, N-[(4-hydroxy-2-oxo-8-(3-chlorophenyl)-2H-3-chromenyl)carbonyl]glycine], the IC50 rises from 30 nM to 90 nM (3-fold).

`Cc1ccc(-c2ccc3c(O)c(C(=O)NCC(=O)O)c(=O)oc3c2)cc1` [Example 15, N-[(4-hydroxy-2-oxo-7-(4-methylphenyl)-2H-3-chromenyl)carbonyl]glycine] and `O=C(O)CNC(=O)c1c(O)c2ccc(-c3ccc(Cl)cc3)cc2oc1=O` [Example 4, N-[(4-hydroxy-2-oxo-7-(4-chloro-phenyl)-2H-3-chromenyl)carbonyl]glycine] are the same in IC50: 150 nM for the first, 150 nM for the second.

First: O=C(O)CNC(=O)c1c(O)c2cccc(-c3ccccc3)c2oc1=O [Example 16, N-[(4-hydroxy-2-oxo-8-phenyl-2H-3-chromenyl)carbonyl]glycine]
Second: O=C(O)CNC(=O)c1c(O)c2cccc(-c3ccccc3Cl)c2oc1=O [Example 17, N-[(4-hydroxy-2-oxo-8-(2-chlorophenyl)-2H-3-chromenyl)carbonyl]glycine]
The IC50 of the first is 1.8-fold higher: 350 nM for the first, 200 nM for the second. The second is the more potent here.

`O=C(O)CNC(=O)c1c(O)c2ccc(-c3ccc(Cl)c(Cl)c3)cc2oc1=O` [Example 9, N-[(4-hydroxy-2-oxo-7-(3,4-dichloro-phenyl)-2H-3-chromenyl)carbonyl]glycine] and `O=C(O)CNC(=O)c1c(O)c2ccc(-c3cccc(Cl)c3)cc2oc1=O` [Example 3, N-[(4-hydroxy-2-oxo-7-(3-chloro-phenyl)-2H-3-chromenyl)carbonyl]glycine] are the same in IC50: 150 nM for the first, 150 nM for the second.

`COc1ccc(-c2cccc3c(O)c(C(=O)NCC(=O)O)c(=O)oc23)cc1` [Example 28, N-[(4-hydroxy-2-oxo-8-(4-methoxyphenyl)-2H-3-chromenyl)carbonyl]glycine] and `Cc1ccc(-c2cccc3c(O)c(C(=O)NCC(=O)O)c(=O)oc23)cc1` [Example 30, N-[(4-hydroxy-2-oxo-8-(4-methylphenyl)-2H-3-chromenyl)carbonyl]glycine] are the same in IC50: 80 nM for the first, 80 nM for the second.

Compared with `O=C(O)CNC(=O)c1c(O)c2ccc(-c3ccccc3)cc2oc1=O` [Example 1, N-[(4-hydroxy-2-oxo-7-phenyl-2H-3-chromenyl)carbonyl]glycine], `O=C(O)CNC(=O)c1c(O)c2ccc(-c3ccccc3Cl)cc2oc1=O` [Example 2, N-[(4-hydroxy-2-oxo-7-(2-chloro-phenyl)-2H-3-chromenyl)carbonyl]glycine] is 1.7-fold lower in IC50: 250 nM for the first, 150 nM for the second.

Going from `O=C(O)CNC(=O)c1c(O)c2cc(Br)ccc2oc1=O` [Example 37, N-[(4-hydroxy-2-oxo-6-bromo-3-chromenyl)carbonyl]glycine] to `O=C(O)CNC(=O)c1c(O)c2ccc(Br)cc2oc1=O` [Example 35, N-[(4-hydroxy-2-oxo-7-bromo-3-chromenyl)carbonyl]glycine], the IC50 falls from 700 nM to 150 nM (4.7-fold).

`O=C(O)CNC(=O)c1c(O)c2ccc(-c3ccc(F)c(F)c3)cc2oc1=O` [Example 10, N-[(4-hydroxy-2-oxo-7-(3,4-difluoro-phenyl)-2H-3-chromenyl)carbonyl]glycine] and `O=C(O)CNC(=O)c1c(O)c2ccc(-c3cc(F)c(F)c(F)c3)cc2oc1=O` [Example 11, N-[(4-hydroxy-2-oxo-7-(3,4,5-trifluoro-phenyl)-2H-3-chromenyl)carbonyl]glycine] are the same in IC50: 150 nM for the first, 150 nM for the second.

Going from `COc1cccc(-c2ccc3c(O)c(C(=O)NCC(=O)O)c(=O)oc3c2)c1` [Example 12, N-[(4-hydroxy-2-oxo-7-(3-methoxy-phenyl)-2H-3-chromenyl)carbonyl]glycine] to `Cc1cccc(-c2ccc3c(O)c(C(=O)NCC(=O)O)c(=O)oc3c2)c1` [Example 14, N-[(4-hydroxy-2-oxo-7-(3-methylphenyl)-2H-3-chromenyl)carbonyl]glycine], the IC50 rises from 150 nM to 300 nM (2-fold).

`O=C(O)CNC(=O)c1c(O)c2cccc(-c3ccc(F)c(F)c3)c2oc1=O` [Example 25, N-[(4-hydroxy-2-oxo-8-(3,4-difluorophenyl)-2H-3-chromenyl)carbonyl]glycine] and `O=C(O)CNC(=O)c1c(O)c2cccc(-c3cc(F)c(F)c(F)c3)c2oc1=O` [Example 26, N-[(4-hydroxy-2-oxo-8-(3,4,5-trifluorophenyl)-2H-3-chromenyl)carbonyl]glycine] are the same in IC50: 150 nM for the first, 150 nM for the second.

`O=C(O)CNC(=O)c1c(O)c2ccc(-c3ccc(C(F)(F)F)cc3)cc2oc1=O` [Example 6, N-[(4-hydroxy-2-oxo-7-(4-trifluoromethyl-phenyl)-2H-3-chromenyl)carbonyl]glycine] and `O=C(O)CNC(=O)c1c(O)c2ccc(-c3ccc(OC(F)(F)F)cc3)cc2oc1=O` [Example 8, N-[(4-hydroxy-2-oxo-7-(4-trifluoromethoxy-phenyl)-2H-3-chromenyl)carbonyl]glycine] are the same in IC50: 150 nM for the first, 150 nM for the second.

`O=C(O)CNC(=O)c1c(O)c2ccc(Oc3ccccc3)cc2oc1=O` [Example 34, N-[(4-hydroxy-2-oxo-7-phenoxy-2H-3-chromenyl)carbonyl]glycine] and `COc1ccc(-c2ccc3c(O)c(C(=O)NCC(=O)O)c(=O)oc3c2)cc1` [Example 13, N-[(4-hydroxy-2-oxo-7-(4-methoxy-phenyl)-2H-3-chromenyl)carbonyl]glycine] are the same in IC50: 150 nM for the first, 150 nM for the second.

`O=C(O)CNC(=O)c1c(O)c2cccc(-c3cccc(OC(F)(F)F)c3)c2oc1=O` [Example 22, N-[(4-hydroxy-2-oxo-8-(3-trifluoromethoxyphenyl)-2H-3-chromenyl)carbonyl]glycine] and `O=C(O)CNC(=O)c1c(O)c2cccc(-c3cccc(C(F)(F)F)c3)c2oc1=O` [Example 20, N-[(4-hydroxy-2-oxo-8-(3-trifluoromethylphenyl)-2H-3-chromenyl)carbonyl]glycine] are the same in IC50: 100 nM for the first, 100 nM for the second.

`Cc1cccc(-c2cccc3c(O)c(C(=O)NCC(=O)O)c(=O)oc23)c1` [Example 29, N-[(4-hydroxy-2-oxo-8-(3-methylphenyl)-2H-3-chromenyl)carbonyl]glycine] and `COc1cccc(-c2cccc3c(O)c(C(=O)NCC(=O)O)c(=O)oc23)c1` [Example 27, N-[(4-hydroxy-2-oxo-8-(3-methoxyphenyl)-2H-3-chromenyl)carbonyl]glycine] are the same in IC50: 150 nM for the first, 150 nM for the second.

Compared with `O=C(O)CNC(=O)c1c(O)c2cccc(Br)c2oc1=O` [Example 36, N-[(4-hydroxy-2-oxo-8-bromo-3-chromenyl)carbonyl]glycine], `O=C(O)CNC(=O)c1c(O)c2cccc(-c3ccc(Cl)cc3)c2oc1=O` [Example 19, N-[(4-hydroxy-2-oxo-8-(4-chlorophenyl)-2H-3-chromenyl)carbonyl]glycine] is 2-fold lower in IC50: 300 nM for the first, 150 nM for the second.

`O=C(O)CNC(=O)c1c(O)c2ccc(-c3cccc(C(F)(F)F)c3)cc2oc1=O` [Example 5, N-[(4-hydroxy-2-oxo-7-(3-trifluoromethyl-phenyl)-2H-3-chromenyl)carbonyl]glycine] and `O=C(O)CNC(=O)c1c(O)c2ccc(-c3cccc(OC(F)(F)F)c3)cc2oc1=O` [Example 7, N-[(4-hydroxy-2-oxo-7-(3-trifluoromethoxy-phenyl)-2H-3-chromenyl)carbonyl]glycine] are the same in IC50: 150 nM for the first, 150 nM for the second.

`O=C(O)CNC(=O)c1c(O)c2ccc(-c3cccnc3)cc2oc1=O` [Example 33, N-[(4-hydroxy-2-oxo-7-(pyridin-3-yl)-2H-3-chromenyl)carbonyl]glycine] gave an IC50 of 200 nM.
